Measurements: ChEMBL document CHEMBL4673288, “Structure-activity relationship of novel acridone derivatives as antiproliferative agents” (Bioorg Med Chem, 2021)
The source made the active and inactive calls. The rule behind the calls is not given here.

What was measured:
K562 = experiment: Antiproliferative activity against human K562 cells assessed as reduction in cell viability incubated for 48 hrs by MTT assay; format: functional, cell-based; details: K562, 48 h
SW480 = experiment: Antiproliferative activity against human SW480 cells assessed as reduction in cell viability incubated for 72 hrs by SRB assay; format: functional, cell-based; details: SW480, 72 h
HCT-116 = experiment: Antiproliferative activity against human HCT-116 cells assessed as reduction in cell viability incubated for 72 hrs by SRB assay; format: functional, cell-based; details: HCT-116, 72 h
HeLa = experiment: Antiproliferative activity against human HeLa cells assessed as reduction in cell viability incubated for 72 hrs by SRB assay; format: functional, cell-based
[1] = molecular target: DNA topoisomerase 2-alpha (Homo sapiens) (UniProt P11388); experiment: Inhibition of recombinant human topoisomerase 2 alpha-mediated relaxation of supercoiled pBR322 DNA at 200 uM incubated for 30 mins by ethidium bromide staining based agarose gel electrophoresis method
HepG2 = experiment: Antiproliferative activity against human HepG2 cells assessed as reduction in cell viability incubated for 48 hrs by MTT assay; format: functional, cell-based; details: HepG2, 48 h

DNA topoisomerase 2-alpha (Homo sapiens), sequence (P11388 whole entry): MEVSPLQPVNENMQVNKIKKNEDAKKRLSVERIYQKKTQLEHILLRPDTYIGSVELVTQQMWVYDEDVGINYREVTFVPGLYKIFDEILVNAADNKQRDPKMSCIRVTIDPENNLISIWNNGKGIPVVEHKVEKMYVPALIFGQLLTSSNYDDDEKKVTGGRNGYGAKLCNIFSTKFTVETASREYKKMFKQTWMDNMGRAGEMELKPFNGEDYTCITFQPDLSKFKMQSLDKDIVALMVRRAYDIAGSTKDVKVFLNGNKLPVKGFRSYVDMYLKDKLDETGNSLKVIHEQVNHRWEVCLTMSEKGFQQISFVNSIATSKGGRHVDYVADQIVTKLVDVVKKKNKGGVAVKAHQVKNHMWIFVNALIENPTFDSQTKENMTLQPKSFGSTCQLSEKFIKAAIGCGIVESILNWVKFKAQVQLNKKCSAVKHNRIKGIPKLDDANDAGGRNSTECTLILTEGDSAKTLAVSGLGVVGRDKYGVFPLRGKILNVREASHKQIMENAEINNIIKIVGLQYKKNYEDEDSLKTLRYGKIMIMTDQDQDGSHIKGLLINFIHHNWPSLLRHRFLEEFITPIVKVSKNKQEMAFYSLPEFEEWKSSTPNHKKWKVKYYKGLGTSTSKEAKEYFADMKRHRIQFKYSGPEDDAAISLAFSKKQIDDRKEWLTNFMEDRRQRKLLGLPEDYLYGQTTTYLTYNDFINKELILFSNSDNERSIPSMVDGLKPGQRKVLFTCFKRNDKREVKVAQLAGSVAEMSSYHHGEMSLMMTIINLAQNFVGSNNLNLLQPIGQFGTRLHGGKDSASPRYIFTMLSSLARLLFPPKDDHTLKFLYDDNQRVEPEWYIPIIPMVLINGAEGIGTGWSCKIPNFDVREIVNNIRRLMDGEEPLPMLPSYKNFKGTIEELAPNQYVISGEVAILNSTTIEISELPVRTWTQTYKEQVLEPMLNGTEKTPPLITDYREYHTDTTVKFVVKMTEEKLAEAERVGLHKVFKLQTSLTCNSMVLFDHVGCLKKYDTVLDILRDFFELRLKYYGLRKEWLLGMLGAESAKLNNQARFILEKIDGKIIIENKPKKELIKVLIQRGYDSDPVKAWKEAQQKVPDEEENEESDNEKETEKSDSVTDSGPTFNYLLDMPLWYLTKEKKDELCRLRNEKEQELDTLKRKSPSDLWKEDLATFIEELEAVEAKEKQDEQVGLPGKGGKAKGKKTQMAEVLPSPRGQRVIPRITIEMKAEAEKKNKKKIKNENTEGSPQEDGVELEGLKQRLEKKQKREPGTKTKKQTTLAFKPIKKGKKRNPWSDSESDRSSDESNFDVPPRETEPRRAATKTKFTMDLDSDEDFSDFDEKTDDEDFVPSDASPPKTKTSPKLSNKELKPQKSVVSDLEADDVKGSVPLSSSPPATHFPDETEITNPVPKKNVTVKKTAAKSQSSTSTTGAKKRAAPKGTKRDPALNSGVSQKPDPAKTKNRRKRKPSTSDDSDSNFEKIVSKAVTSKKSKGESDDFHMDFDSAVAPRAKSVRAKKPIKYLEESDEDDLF

Structure (SMILES)	IC50 (K562) [µM]	IC50 (SW480) [µM]	IC50 (HCT-116) [µM]	IC50 (HeLa) [µM]	inhibition [1]	IC50 (HepG2) [µM]
COc1ccc2[nH]c3c([N+](=O)[O-])ccc(NCCc4ccc(O)c(O)c4)c3c(=O)c2c1	–	6.5	> 20	> 20	–	–
COc1ccc(CCNc2ccc([N+](=O)[O-])c3[nH]c4ccc(O)cc4c(=O)c23)cc1OC	–	> 20	> 20	> 20	–	–
COc1ccc2[nH]c3c([N+](=O)[O-])ccc(NCc4ccco4)c3c(=O)c2c1	–	> 20	> 20	> 20	–	–
COc1ccc2[nH]c3c(N)ccc(Nc4ccc(OC)c(OC)c4)c3c(=O)c2c1	–	8.6	4.6	6.2	–	–
COc1ccc2[nH]c3c([N+](=O)[O-])ccc(NCc4ccc(O)cc4)c3c(=O)c2c1	–	> 20	12.4	> 20	–	–
O=c1c2cc(O)ccc2[nH]c2c([N+](=O)[O-])ccc(Nc3ccc(O)cc3)c12	–	> 20	> 20	> 20	Active	–
CCCCCCCCCCCCOc1ccc(OCCCCNCCCCNCCCNCCC)c2c1C(=O)c1ccccc1C2=O	–	–	–	–	–	8.8
COc1ccc2[nH]c3c([N+](=O)[O-])ccc(Nc4ccc(N5CCN(C)CC5)cc4)c3c(=O)c2c1	–	> 20	> 20	> 20	–	–
COc1ccc2[nH]c3c([N+](=O)[O-])ccc(NCc4cccnc4)c3c(=O)c2c1	–	> 20	> 20	> 20	–	–
COc1ccc2[nH]c3c(N)ccc(NCCc4ccc(O)c(O)c4)c3c(=O)c2c1	–	> 50	> 50	> 50	–	–
COc1ccc(Nc2ccc([N+](=O)[O-])c3[nH]c4ccc(O)cc4c(=O)c23)cc1	–	> 20	> 20	> 20	Active	–
COc1ccc(CCNc2ccc(N)c3[nH]c4ccc(F)cc4c(=O)c23)cc1OC	–	11.3	17.5	12.3	–	–
COc1ccc2[nH]c3c([N+](=O)[O-])ccc(NCCCN4CCN(C)CC4)c3c(=O)c2c1	–	2	1	0.9	Active	–
CCN(CC)CCNc1ccc2ncn3c4ccc(O)cc4c(=O)c1c23 [C-1311]	–	0.48	0.3	–	–	–
CCCCCCCCCCCOc1ccc(OCc2ccc(C(=O)N[C@@H](CCC(=O)O)C(=O)O)cc2)c2c1C(=O)c1ccccc1C2=O	0.77	–	–	–	–	–
COc1ccc(Nc2ccc([N+](=O)[O-])c3[nH]c4ccc(O)cc4c(=O)c23)cc1OC	–	> 20	> 20	> 20	inactive	–
O=c1c2cc(O)ccc2[nH]c2c([N+](=O)[O-])ccc(Nc3ccc(Cn4cncn4)cc3)c12	–	2.3	3.9	7.6	Active	–
O=c1c2cc(O)ccc2[nH]c2c([N+](=O)[O-])ccc(NCc3cccs3)c12	–	> 20	> 20	> 20	inactive	–
COc1ccc2[nH]c3c([N+](=O)[O-])ccc(Nc4ccc(O)cc4)c3c(=O)c2c1	–	17.1	11.8	7.5	Active	–
COc1ccc2[nH]c3c(N)ccc(Nc4ccc(N5CCOCC5)cc4)c3c(=O)c2c1	–	3.8	17.8	17.5	–	–
O=c1c2cc(O)ccc2[nH]c2c([N+](=O)[O-])ccc(NCCc3cccc(C(F)(F)F)c3)c12	–	11.7	> 20	7.6	–	–
Nc1ccc(NCCc2cccc(C(F)(F)F)c2)c2c(=O)c3cc(O)ccc3[nH]c12	–	> 20	> 50	> 20	–	–
O=c1c2cc(O)ccc2[nH]c2c([N+](=O)[O-])ccc(Nc3ccc(N4CCOCC4)cc3)c12	–	2.4	5.9	6.4	–	–
O=c1c2cc(O)ccc2[nH]c2c([N+](=O)[O-])ccc(NCc3ccc(O)cc3)c12	–	> 20	> 20	> 20	–	–
O=c1c2cc(O)ccc2[nH]c2c([N+](=O)[O-])ccc(NCc3ccsc3)c12	–	> 20	> 20	> 20	Active	–
CN1CCN(CCNc2ccc([N+](=O)[O-])c3[nH]c4ccc(O)cc4c(=O)c23)CC1	–	1.2	0.7	1.2	Active	–
COc1ccc2[nH]c3c([N+](=O)[O-])ccc(Nc4ccc(N5CCOCC5)cc4)c3c(=O)c2c1	–	> 20	> 20	> 20	–	–
O=C1c2c(O)ccc(O)c2C(=O)c2c(NCCNCCO)ccc(NCCNCCO)c21 [MITOXANTRONE]	2.35	–	–	–	–	15.3

Further lines, with some results ahead:

IC50 (K562) [µM]	IC50 (SW480) [µM]	IC50 (HCT-116) [µM]	IC50 (HeLa) [µM]	inhibition [1]	Structure (SMILES)	IC50 (HepG2) [µM]
1.82	–	–	–	–	CCCCCCCCCCCOc1ccc(OCc2ccc(C(=O)N[C@@H](Cc3ccccc3)C(=O)O)cc2)c2c1C(=O)c1ccccc1C2=O	–
–	8.8	> 20	4.5	–	COc1ccc(CCNc2ccc([N+](=O)[O-])c3[nH]c4ccc(F)cc4c(=O)c23)cc1OC	–
–	> 20	> 20	> 20	–	COc1ccc2[nH]c3c([N+](=O)[O-])ccc(NCc4cccs4)c3c(=O)c2c1	–
–	> 20	> 20	> 20	Active	COc1cc(Nc2ccc([N+](=O)[O-])c3[nH]c4ccc(O)cc4c(=O)c23)cc(OC)c1	–
–	15.7	> 20	16.8	Active	COc1ccc2[nH]c3c(N)ccc(Nc4ccc(-n5cncn5)cc4)c3c(=O)c2c1	–
–	> 20	> 20	> 20	–	O=c1c2cc(O)ccc2[nH]c2c([N+](=O)[O-])ccc(NCc3ccc(F)cc3)c12	–
–	> 20	> 20	> 20	inactive	O=c1c2cc(O)ccc2[nH]c2c([N+](=O)[O-])ccc(NCc3cccnc3)c12	–
–	> 25	> 12.5	> 12.5	–	COc1ccc(Nc2ccc(N)c3[nH]c4ccc(OC)cc4c(=O)c23)cc1	–
–	> 20	> 20	10.5	–	O=c1c2cc(F)ccc2[nH]c2c([N+](=O)[O-])ccc(NCc3ccc(O)cc3)c12	–
–	0.3	0.4	0.6	Active	CN1CCN(Cc2ccc(Nc3ccc([N+](=O)[O-])c4[nH]c5ccc(O)cc5c(=O)c34)cc2)CC1	–
–	> 50	> 50	17.2	–	COc1ccc(CCNc2ccc(N)c3[nH]c4ccc(O)cc4c(=O)c23)cc1OC	–
–	2.3	2.5	1.1	Active	O=c1c2cc(O)ccc2[nH]c2c([N+](=O)[O-])ccc(Nc3ccc(CN4CCCCC4)cc3)c12	–
–	15.6	8.8	8.8	–	COc1ccc2[nH]c3c(N)ccc(NCCc4ccc(OC)c(OC)c4)c3c(=O)c2c1	–
–	19.7	> 20	12.8	–	COc1ccc2[nH]c3c([N+](=O)[O-])ccc(NCCc4ccc(OC)c(OC)c4)c3c(=O)c2c1	–
–	> 20	> 20	> 20	Active	COc1cccc(Nc2ccc([N+](=O)[O-])c3[nH]c4ccc(O)cc4c(=O)c23)c1	–
–	> 20	> 20	> 20	–	COc1ccc2[nH]c3c(N)ccc(NCCc4cccc(C(F)(F)F)c4)c3c(=O)c2c1	–
10.8	0.6	1.7	–	Active	COc1cc([C@@H]2c3cc4c(cc3[C@@H](O[C@@H]3O[C@@H]5CO[C@@H](C)O[C@H]5[C@H](O)[C@H]3O)[C@H]3COC(=O)[C@H]23)OCO4)cc(OC)c1O [ETOPOSIDE]	–
–	12.4	> 20	12.4	–	COc1ccc2[nH]c3c([N+](=O)[O-])ccc(NCCc4cccc(C(F)(F)F)c4)c3c(=O)c2c1	–
–	1.1	1.5	4.8	Active	CN1CCN(c2ccc(Nc3ccc([N+](=O)[O-])c4[nH]c5ccc(O)cc5c(=O)c34)cc2)CC1	–
–	8.8	5.7	1.7	Active	COc1ccc2[nH]c3c([N+](=O)[O-])ccc(Nc4ccc(CN5CCCCC5)cc4)c3c(=O)c2c1	–
–	15.5	> 20	12.2	Active	O=c1c2cc(O)ccc2[nH]c2c([N+](=O)[O-])ccc(NCc3ccco3)c12	–
